Reference: ChEMBL document CHEMBL3988442, “University of Dundee, Small-Polar-MMV Screening Library” (2021)
Values joined by “and” are separate entries in the source; they are usually repeats but may differ in a detail not shown here. Identical values can stand only once.

What was measured:
[1] = target: T1, Histidine--tRNA ligase (Trypanosoma cruzi (strain CL Brener), UniProt Q4DA54); assay: Trypanosoma cruzi histidyl tRNA synthetase (Tc-HisRS); format: functional
T1 sequence (Q4DA54 whole entry): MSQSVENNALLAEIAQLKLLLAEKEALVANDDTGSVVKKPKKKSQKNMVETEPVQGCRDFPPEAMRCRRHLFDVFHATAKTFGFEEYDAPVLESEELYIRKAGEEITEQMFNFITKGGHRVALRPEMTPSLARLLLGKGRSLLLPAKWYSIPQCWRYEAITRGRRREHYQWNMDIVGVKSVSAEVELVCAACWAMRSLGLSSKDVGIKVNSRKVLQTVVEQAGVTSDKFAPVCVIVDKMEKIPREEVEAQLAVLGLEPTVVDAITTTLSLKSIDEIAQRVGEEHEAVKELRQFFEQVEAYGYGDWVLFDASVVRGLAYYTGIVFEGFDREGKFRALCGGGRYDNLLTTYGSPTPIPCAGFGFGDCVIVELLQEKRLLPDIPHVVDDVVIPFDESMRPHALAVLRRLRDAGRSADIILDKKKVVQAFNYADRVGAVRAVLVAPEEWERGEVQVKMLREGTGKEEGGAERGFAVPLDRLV

[2] = target: T2, Coenzyme A biosynthesis bifunctional protein CoaBC (Mycobacterium tuberculosis (strain ATCC 25618 / H37Rv), UniProt P9WNZ1); assay: Biomol Green assay for MtCoaBC inhibitor, OD650 read; format: functional
T2 sequence (P9WNZ1 whole entry): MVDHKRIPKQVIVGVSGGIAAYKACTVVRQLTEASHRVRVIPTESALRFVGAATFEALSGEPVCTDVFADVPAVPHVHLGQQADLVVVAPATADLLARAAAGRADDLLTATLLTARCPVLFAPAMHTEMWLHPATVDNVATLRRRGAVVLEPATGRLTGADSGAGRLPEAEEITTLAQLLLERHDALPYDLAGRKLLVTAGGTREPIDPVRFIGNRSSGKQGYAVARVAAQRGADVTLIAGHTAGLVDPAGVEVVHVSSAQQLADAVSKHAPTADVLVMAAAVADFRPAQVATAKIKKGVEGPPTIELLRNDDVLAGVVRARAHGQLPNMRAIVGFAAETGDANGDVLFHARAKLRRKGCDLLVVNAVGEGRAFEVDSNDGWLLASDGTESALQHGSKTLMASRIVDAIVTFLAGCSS

[3] = target: T3, Histidine--tRNA ligase (Leishmania infantum, UniProt A4I591); assay: Leishmania infantum Histidine tRNA synthetase (LdHisRS); format: functional
T3 sequence (A4I591 whole entry): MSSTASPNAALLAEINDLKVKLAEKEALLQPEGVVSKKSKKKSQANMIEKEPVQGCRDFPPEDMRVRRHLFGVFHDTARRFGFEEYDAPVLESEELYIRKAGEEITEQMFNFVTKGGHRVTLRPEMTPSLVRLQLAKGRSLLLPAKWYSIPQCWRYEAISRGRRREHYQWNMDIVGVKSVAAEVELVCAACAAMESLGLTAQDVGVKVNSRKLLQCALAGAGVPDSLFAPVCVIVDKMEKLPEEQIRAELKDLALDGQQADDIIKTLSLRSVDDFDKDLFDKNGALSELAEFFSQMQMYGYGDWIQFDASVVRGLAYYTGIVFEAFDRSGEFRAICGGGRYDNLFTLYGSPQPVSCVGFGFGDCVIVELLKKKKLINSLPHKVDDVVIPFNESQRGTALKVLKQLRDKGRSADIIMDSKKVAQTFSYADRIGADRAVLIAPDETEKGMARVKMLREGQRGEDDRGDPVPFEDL

[4] = tested on: Plasmodium falciparum; assay: Calibr Malaria Delayed Death Assay SOP; format: functional, organism-based; settings: for IC50: Plasmodium falciparum
[5] = target: ClpP1P2 (Mycobacterium tuberculosis (strain ATCC 25618 / H37Rv), UniProt P9WPC3+P9WPC5); assay: in vitro assay to detect presence of AMC directly proportional to the activity of ClpP1P2. GHDDI collaboration.; format: functional
[6] = target: T4, Ubiquitin-activating enzyme e1, putative (Leishmania donovani (strain BPK282A1), UniProt E9BSI1); assay: Leishmania donovani Ubiquitin Activating Enzyme (LdE1); format: functional
T4 sequence (E9BSI1 whole entry): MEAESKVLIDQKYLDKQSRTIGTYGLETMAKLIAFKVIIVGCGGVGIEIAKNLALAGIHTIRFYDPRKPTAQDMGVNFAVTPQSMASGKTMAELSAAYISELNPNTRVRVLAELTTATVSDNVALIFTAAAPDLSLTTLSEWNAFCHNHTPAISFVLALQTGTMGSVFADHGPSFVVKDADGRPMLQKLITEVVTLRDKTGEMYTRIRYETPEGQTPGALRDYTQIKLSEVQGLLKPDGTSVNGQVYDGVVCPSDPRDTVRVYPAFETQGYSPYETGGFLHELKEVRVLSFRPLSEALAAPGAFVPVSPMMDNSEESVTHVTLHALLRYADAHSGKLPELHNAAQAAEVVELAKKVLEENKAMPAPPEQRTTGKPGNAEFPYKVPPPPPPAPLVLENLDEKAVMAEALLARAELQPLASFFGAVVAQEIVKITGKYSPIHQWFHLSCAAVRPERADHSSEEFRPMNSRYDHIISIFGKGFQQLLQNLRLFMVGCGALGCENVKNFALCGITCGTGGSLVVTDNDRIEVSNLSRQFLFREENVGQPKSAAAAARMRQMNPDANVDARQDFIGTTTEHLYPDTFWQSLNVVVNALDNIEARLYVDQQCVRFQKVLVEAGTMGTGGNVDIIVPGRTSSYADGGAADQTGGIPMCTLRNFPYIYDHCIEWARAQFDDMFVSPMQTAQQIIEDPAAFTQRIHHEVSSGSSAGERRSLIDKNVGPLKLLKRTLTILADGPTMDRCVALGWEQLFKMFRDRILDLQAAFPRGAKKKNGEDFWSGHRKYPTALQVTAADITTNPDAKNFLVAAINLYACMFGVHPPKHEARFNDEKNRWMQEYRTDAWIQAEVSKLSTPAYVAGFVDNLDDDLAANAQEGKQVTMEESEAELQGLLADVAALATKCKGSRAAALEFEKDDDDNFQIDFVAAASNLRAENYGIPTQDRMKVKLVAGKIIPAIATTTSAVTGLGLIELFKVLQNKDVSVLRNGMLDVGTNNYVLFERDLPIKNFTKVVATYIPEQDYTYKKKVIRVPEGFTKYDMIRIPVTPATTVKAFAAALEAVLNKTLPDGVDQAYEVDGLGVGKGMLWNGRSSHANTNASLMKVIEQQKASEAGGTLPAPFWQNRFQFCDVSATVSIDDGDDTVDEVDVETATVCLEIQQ

[7] = target: Lysine--tRNA ligase (Plasmodium falciparum (isolate 3D7), UniProt Q8IDJ8); assay: Pf-KRS-1 (Lysyl-RNA Synthetase-1, KRS-1, cytosolic KRS) from Plasmodium falciparum. Inhibitor assay, 384 well plate, luminescence read.; format: functional
[8] = tested on: Mycobacterium tuberculosis; assay: Cornell M. t heat shock assay; format: functional, organism-based; settings: Mycobacterium tuberculosis
[9] = microbe, parasite or virus in culture; settings: Mycobacterium tuberculosis, 72 h, read-out: pIC50 (converted)
[10] = microbe, parasite or virus in culture; settings: Mycobacterium tuberculosis, 96 h, read-out: pIC50 (converted)
[11] = tested on: Trypanosoma brucei; assay: Trypanosoma brucei 72 hour study; format: functional, organism-based; settings: for IC50: Trypanosoma brucei, 72 h

Lysine--tRNA ligase, sequence (Q8IDJ8 whole entry): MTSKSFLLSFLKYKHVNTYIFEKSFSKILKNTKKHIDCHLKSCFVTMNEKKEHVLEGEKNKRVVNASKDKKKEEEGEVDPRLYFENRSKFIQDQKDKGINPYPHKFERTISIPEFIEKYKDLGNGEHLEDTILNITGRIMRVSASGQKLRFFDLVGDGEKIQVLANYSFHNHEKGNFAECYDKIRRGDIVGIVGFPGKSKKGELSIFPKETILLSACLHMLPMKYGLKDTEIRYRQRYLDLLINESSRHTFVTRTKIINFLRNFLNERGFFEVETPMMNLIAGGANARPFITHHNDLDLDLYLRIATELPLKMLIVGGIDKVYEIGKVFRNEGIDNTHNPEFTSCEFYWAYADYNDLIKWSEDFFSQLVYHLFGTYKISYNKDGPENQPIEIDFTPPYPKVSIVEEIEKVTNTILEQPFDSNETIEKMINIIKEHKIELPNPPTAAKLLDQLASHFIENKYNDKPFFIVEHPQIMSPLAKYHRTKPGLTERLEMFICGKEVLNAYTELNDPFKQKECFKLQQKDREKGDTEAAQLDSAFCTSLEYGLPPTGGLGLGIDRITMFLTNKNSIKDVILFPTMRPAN
ClpP1P2, sequence (P9WPC5 whole entry): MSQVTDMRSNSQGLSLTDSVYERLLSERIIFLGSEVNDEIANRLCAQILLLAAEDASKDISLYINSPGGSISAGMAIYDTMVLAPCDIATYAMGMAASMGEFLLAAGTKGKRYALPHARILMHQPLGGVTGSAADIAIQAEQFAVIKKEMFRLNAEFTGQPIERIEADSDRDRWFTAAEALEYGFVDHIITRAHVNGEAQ
ClpP1P2, sequence (P9WPC3 whole entry): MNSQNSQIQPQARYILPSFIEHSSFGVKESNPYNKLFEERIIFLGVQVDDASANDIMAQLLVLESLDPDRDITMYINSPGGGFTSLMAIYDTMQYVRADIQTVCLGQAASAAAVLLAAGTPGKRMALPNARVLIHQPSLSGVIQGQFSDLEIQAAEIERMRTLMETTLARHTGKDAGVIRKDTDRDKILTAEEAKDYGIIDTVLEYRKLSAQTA

NCC1Cc2cc(-c3nccc(N4CCC(O)CC4)n3)cc(F)c2O1 (stereo not given)
IC50 [1]: 20.1 µM and 18.7 µM
IC50 [2]: > 30.2 µM
IC50 [3]: 31.2 µM and 28.1 µM
pIC50 [4]: 6.277
IC50 [4]: 0.569 µM

CNc1cc(-c2cccc(CN)c2)c2cc[nH]c2n1
IC50 [5]: > 100 µM
IC50 [1]: 27.7 µM and 26.3 µM
IC50 [3]: 25.1 µM and 23.5 µM

CCOC1CCN(C(=O)Nc2ccc(=O)n(C)c2)CC1
IC50 [1]: 23.9 µM and 23.3 µM
IC50 [3]: 0.995 µM and 1.6 µM and 2.46 µM and 3.11 µM
IC50 [6]: > 100 µM

Cn1cc(NC(=O)N2CCC(Cc3ccccc3)CC2)ccc1=O
IC50 [1]: 3.14 µM and 2.52 µM
IC50 [3]: 6.79 µM and 5.48 µM
IC50 [6]: > 100 µM

Cn1cc(NC(=O)C2CC(c3ccccc3)C2)ccc1=O (stereo not given)
IC50 [1]: 8.22 µM
IC50 [3]: 8.88 µM and 10.5 µM
IC50 [6]: > 100 µM

Cn1cc(NC(=O)N2CCC(OCc3ccccc3)CC2)ccc1=O
IC50 [1]: 17 µM and 14.8 µM
IC50 [3]: 11.6 µM and 6.66 µM
IC50 [6]: > 100 µM

Cn1cc(NC(=O)N2CCC2c2ccccc2)ccc1=O (stereo not given)
IC50 [1]: 27.5 µM and 31.2 µM
IC50 [3]: 7.08 µM and 6.57 µM
IC50 [6]: > 100 µM
IC50 [7]: > 50.1 µM

Cc1cc(C)n(CC2CCCN2Cc2nc(N)c3ccccc3n2)n1 (stereo not given)
IC50 [1]: > 100 µM
IC50 [8]: > 100 µM

Cc1nc(CN(C)CC2CCCN2c2cccnn2)nc2ccccc12 (stereo not given)
IC50 [9]: 10.8 µM
IC50 [1]: 30.3 µM and 27.2 µM
IC50 [3]: 11.8 µM and 14.8 µM
IC50 [10]: > 50.1 µM

Cn1cc(NC(=O)N2CCC(CN3CCCC3)CC2)ccc1=O
IC50 [1]: > 100 µM
IC50 [6]: > 100 µM

Cn1cc(NC(=O)N2CCC(NS(C)(=O)=O)CC2)ccc1=O
IC50 [1]: 52.1 µM and 49.1 µM
IC50 [2]: > 30.2 µM
IC50 [3]: 2.32 µM and 2.57 µM
IC50 [6]: > 100 µM
IC50 [7]: > 50.1 µM

CC(C)(C)C(=O)NCCc1ccn(-c2ccccc2)n1
pIC50 [11]: 5.66 and 5.649
IC50 [11]: 2.22 µM

CCOC1CCCN(C(=O)NCCc2ccn(-c3ccccc3)n2)C1 (stereo not given)
pIC50 [11]: 6.745 and 6.727
IC50 [11]: 0.141 µM

O=C(NCCc1ccn(-c2ccccc2)n1)N1CCC1
pIC50 [11]: 6.164 and 6.213
IC50 [11]: 0.53 µM

Cc1cccc(CN2CCCCC2c2n[nH]cc2-c2cc(C)no2)c1.Cl (stereo not given)
pIC50 [11]: 4.638 and 4.693
IC50 [11]: 19.8 µM

Cl.Fc1ccc(F)c(CN2CCC(c3cc4ncccc4cn3)CC2)c1
IC50 [9]: 27.2 µM
IC50 [1]: 58.4 µM and 43.6 µM
IC50 [8]: > 100 µM
IC50 [10]: > 50.1 µM
pIC50 [4]: 6.54
IC50 [4]: 0.505 µM

Cl.Fc1cccc(CN2CCC(c3cc4ncccc4cn3)CC2)c1F
IC50 [1]: 28.5 µM and 56.4 µM
IC50 [8]: 43.3 µM
pIC50 [4]: 6.161
IC50 [4]: 0.897 µM

COc1ccc(C)cc1CN1CCC(c2cc3ncccc3cn2)CC1.Cl
IC50 [9]: 19.4 µM
IC50 [1]: 14.5 µM and 14.6 µM
IC50 [3]: 17.6 µM and 23.6 µM
IC50 [10]: 25.8 µM
pIC50 [4]: 6.624
IC50 [4]: 0.264 µM

Cc1nc(C2(O)CCCNCC2)sc1CCOc1ccccc1F.Cl (stereo not given)
pIC50 [11]: 4.648 and 4.682
IC50 [11]: 21.9 µM

c1ccc(N2CCCC3(COCCN(c4nccs4)C3)C2)nc1 (stereo not given)
IC50 [1]: 73.9 µM and 71.8 µM
IC50 [2]: > 30.2 µM
